Experimental data reported in article PMC7024345 (Molecules, 2020).
pIC50: −log10 of the molar value. Where “and” joins values, the source holds several entries; their conditions need not be identical. Equal values may be shown once. Read-outs that look alike come from different tables or passages of the source.

What was measured:
[1] = molecular target: T1, eqBChE (BChE from equine serum) (Equus caballus, UniProt P81908); assay: biochemical
T1 construct: BChE from equine serum (eqBChE); purchased Sigma-Aldrich (St. Louis, MO, USA); host or cells: equine serum
Protocol: (§1) Acetylcholinesterase and butyrylcholinesterase inhibitory activities of the compounds under study were evaluated spectrophotometrically following Ellman’s method using AChE from electrophorus electricus (eeAChE) and BChE from equine serum (eqBChE). The lyophilized enzymes were dissolved in sodium phosphate buffer (0.25 M, pH 7.4) to make a stock solution of eeAChE (1000 U/mL) or eqBChE (25 U/mL). […] Briefly, in each well, 100 μL of phosphate buffer, 40 μL of DTNB, 20 μL of the tested compounds (100 µM solution dissolved in 0.1% DMSO and phosphate buffer) and 20 μL of cholinesterase solution were pre-incubated in a 96-well microplate for 5 min at 30 °C. […] The rate of the reaction before adding the enzyme was subtracted from that obtained after enzyme addition in order to correct for spontaneous hydrolysis of substrate.

[2] = molecular target: T2, eeAChE (AChE from electrophorus electricus) (Electrophorus electricus, UniProt O42275); assay: biochemical; type: biochemical; details: for pIC50: Ellman's method, ATCI substrate, 30 °C; for fold enhancement of eeAChE inhibitory activity: 10 carbon linker compound compared to 6 carbon linker analogue (compounds 3 and 4)
T2 construct: purchased Sigma-Aldrich (St. Louis, MO, USA)
Protocol: as §1

[3] = Chemical stability observation; type: physicochemical
From the text: Accordingly, these two compounds were selected for the study as protective agents against glutamate, iron(III) and Aβ42.

[4] = tested on: differentiated SH-SY5Y cells; assay: Neuroprotection against glutamate, MTT reduction; type: cell-based, human; details: mean ± SD; for MTT reduction: 30 min pre-treatment, then glutamate 16 mM 24 h; for MTT reduction, aggressor alone: glutamate 16 mM, 24 h
Protocol: (§2) After 30 min of pre-treatment with Compounds 7 (10 and 50 µM) and 11 (10 µM), the cells were exposed to different aggressors, described above, for 24 h.
(§3) Figure 6 Evaluation of the protective effects of Compounds 7 (10 and 50 µM) and 11 (10 µM) in SH-SY5Y cells against glutamate (16 mM, A), iron(III) (1 mM, B) and Aβ42 (25 µM, C) as oxidative stress inducers. The cells were pre-treated with antioxidants for 30 min and exposed to the aggressors for 24 h. The data are expressed as the means of three independent experiments together with the standard deviation (Mean ± SD). Statistical comparisons were estimated using the nonparametric method of Kruskal–Wallis [one-way ANOVA on ranks] followed by Dunn’s post hoc test (A,B) and using the parametric method of one-way analysis of variance (ANOVA) followed by Dunnett’s multiple comparison test (C, F = 364.2) (Supplementary Table S2). In all cases, p values lower than 0.05 were considered significant (^## p < 0.05, ^#### p < 0.0001 vs. control data; ** p < 0.01, *** p < 0.001, **** p < 0.0001 vs. aggressor values).
(§4) Differentiated human neuroblastoma cells were routinely cultured into […] flasks and maintained in DMEM high glucose (4.5 g/L glucose), supplemented with 10% heat-inactivated FBS (v/v), 1% NEAA (v/v) and 1% penicillin/streptomycin (v/v). The cell cultures were maintained at 37 °C in a humidified 5% CO2–95% air atmosphere and passaged once a week by trypsinization (0.25% trypsin). Neuroblastoma SH-SY5Y cells were seeded onto 96 well plates at a density of 25,000 cells/cm^2 in cell culture medium with trans-retinoic acid (RA, final concentration of 10 µM) and incubated for three days at 37 °C in a humidified, 5% CO2–95% air atmosphere. Then, the medium was supplemented with 12-O-tetradecanoylphorbol-13-acetate (TPA, final concentration of 80 nM), and cells were incubated for three days. Stock solutions of RA (10 mM) and TPA (160 µM) were prepared in DMSO. To avoid phenotypic changes, the cells used for all experiments were taken between the 19th and 28th passages.
(§5) The neuroprotective efficacy of mitochondriotropic antioxidants 7 and 11 was evaluated in a cell-based assay against diverse oxidative stress inducers. Briefly, SH-SY5Y cells were pre-treated with Compounds 7 and 11 followed by incubation with the well-described aggressors that play a role in AD progression, namely Aβ-amyloid 1-42 (Aβ42), ferric nitrilotriacetate (FeNTA) and glutamic acid. Differentiated SH-SY5Y cells were pre-treated with the test compounds 7 (10 and 50 µM) and 11 (10 µM) for 30 min. Then, a culture medium containing Aβ42 (25 µM), iron(III) (1 mM) or glutamic acid (16 mM) was added, and cells were incubated for additional 24 h. A negative control (cells treated with culture medium containing DMSO 0.1%) and a positive control (cells treated with culture medium containing DMSO 0.1%, followed by treatment with aggressors) were also included. Cell viability was estimated using the MTT reduction assay, as described by Fernandes et al..

[5] = tested on: differentiated SH-SY5Y cells; assay: Neuroprotection against iron(III), MTT reduction; type: cell-based, human; details: mean ± SD; for MTT reduction: 30 min pre-treatment, then iron(III) 1 mM 24 h; for MTT reduction, aggressor alone: iron(III) 1 mM, 24 h
Protocol: as §2, §3, §4, §5

[6] = tested on: differentiated SH-SY5Y cells; assay: Neuroprotection against Aβ42, MTT reduction; type: cell-based, human; details: mean ± SD; for MTT reduction: 30 min pre-treatment, then Aβ42 25 µM 24 h; for MTT reduction, aggressor alone: Aβ42 25 µM, 24 h
Protocol: as §2, §3, §4, §5

SH-SY5Y cells = tested on: SH-SY5Y cells; set-up: method as in PMID 30784884; details: at 50 µM; cited from earlier work
[7] = Ellman's method, BTCI substrate, 30 °C, read-out: IC50 eqBChE, mean (CI 95%)
[8] = read-out: IC50 eeAChE, mean (CI 95%)

T2 sequence (O42275 24-633): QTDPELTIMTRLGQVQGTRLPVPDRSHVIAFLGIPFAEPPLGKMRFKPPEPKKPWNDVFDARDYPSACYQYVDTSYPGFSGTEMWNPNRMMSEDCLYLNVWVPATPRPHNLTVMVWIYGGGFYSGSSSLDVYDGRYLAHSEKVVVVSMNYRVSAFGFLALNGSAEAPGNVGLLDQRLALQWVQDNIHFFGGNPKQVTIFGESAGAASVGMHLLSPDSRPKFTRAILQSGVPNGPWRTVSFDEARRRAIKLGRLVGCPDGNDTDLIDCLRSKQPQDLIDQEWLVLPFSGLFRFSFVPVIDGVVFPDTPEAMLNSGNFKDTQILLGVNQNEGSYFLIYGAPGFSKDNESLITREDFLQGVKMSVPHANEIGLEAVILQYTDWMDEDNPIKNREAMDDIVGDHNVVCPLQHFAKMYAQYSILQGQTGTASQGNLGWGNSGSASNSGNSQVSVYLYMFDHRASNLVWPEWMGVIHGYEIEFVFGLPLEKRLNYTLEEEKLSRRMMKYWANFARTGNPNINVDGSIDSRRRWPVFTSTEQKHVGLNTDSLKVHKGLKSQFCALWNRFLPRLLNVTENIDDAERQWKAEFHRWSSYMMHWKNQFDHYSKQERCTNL
T1 sequence (P81908 whole entry): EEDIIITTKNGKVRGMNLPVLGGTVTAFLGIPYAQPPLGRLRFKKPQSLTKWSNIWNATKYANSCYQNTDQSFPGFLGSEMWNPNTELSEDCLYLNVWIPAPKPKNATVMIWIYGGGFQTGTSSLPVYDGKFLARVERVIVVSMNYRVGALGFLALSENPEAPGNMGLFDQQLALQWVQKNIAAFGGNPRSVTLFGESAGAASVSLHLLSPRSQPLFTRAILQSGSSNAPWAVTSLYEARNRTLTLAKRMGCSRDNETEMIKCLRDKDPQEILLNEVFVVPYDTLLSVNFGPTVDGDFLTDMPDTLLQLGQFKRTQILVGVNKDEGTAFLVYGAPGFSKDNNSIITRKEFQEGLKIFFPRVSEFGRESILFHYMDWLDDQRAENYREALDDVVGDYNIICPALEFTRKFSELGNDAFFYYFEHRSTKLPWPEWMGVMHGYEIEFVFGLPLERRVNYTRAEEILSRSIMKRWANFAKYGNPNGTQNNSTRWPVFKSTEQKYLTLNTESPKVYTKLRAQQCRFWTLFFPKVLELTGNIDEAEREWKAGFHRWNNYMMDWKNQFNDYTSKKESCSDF

| Compound | SI: selectivity index = IC50 (eeAChE)/IC50 (eqBChE) [1] | pIC50 [1, 7] | pIC50 [2, 8] | pIC50 [1] | pIC50 ([2]; IC50 eeAChE, mean (CI 95%)) | further results |
| --- | --- | --- | --- | --- | --- | --- |
| O=C(/C=C/c1cc(O)c(O)c(O)c1)NCCCCCC[P+](c1ccccc1)(c1ccccc1)c1ccccc1 [Compound 1] | 7.2 | 6.39 | 5.53 |  |  |  |
| O=C(CCc1cc(O)c(O)c(O)c1)NCCCCCC[P+](c1ccccc1)(c1ccccc1)c1ccccc1 [Compound 2] | 2.1 |  |  | 5.50 | 5.17 |  |
| O=C(Cc1cc(O)c(O)c(O)c1)NCCCCCC[P+](c1ccccc1)(c1ccccc1)c1ccccc1 [Compound 3] | 2.0 |  |  | 5.34 | 5.05 |  |
| O=C(/C=C/c1ccc(O)c(O)c1)NCCCCCC[P+](c1ccccc1)(c1ccccc1)c1ccccc1 [Compound 4] | 52.7 | 6.92 | 5.20 |  |  |  |
| O=C(CCc1ccc(O)c(O)c1)NCCCCCC[P+](c1ccccc1)(c1ccccc1)c1ccccc1 [Compound 5] | 0.4 |  |  | 5.60 | 5.97 | chemical stability [3]: showed chemical instability |
| O=C(Cc1ccc(O)c(O)c1)NCCCCCC[P+](c1ccccc1)(c1ccccc1)c1ccccc1 [Compound 6] | 4.2 |  |  | 6.03 | 5.41 |  |
| O=C(/C=C/c1cc(O)c(O)c(O)c1)NCCCCCCCCCC[P+](c1ccccc1)(c1ccccc1)c1ccccc1 [Compound 7] | 30.8 | 6.96 | 5.47 |  |  | MTT reduction ([4]; compound 10 µM): 84.24 ± 5.32 % ctrl; MTT reduction ([4]; compound 50 µM): 81.90 ± 2.81 % ctrl and 81.9 % ctrl; MTT reduction ([5]; compound 10 µM): 75.90 ± 5.25 % ctrl; MTT reduction ([5]; compound 50 µM): 80.22 ± 12.76 % ctrl and 80.2 % ctrl; MTT reduction ([6]; compound 10 µM): 72.55 ± 2.67 % ctrl; MTT reduction ([6]; compound 50 µM): 68.81 ± 0.70 % ctrl and 68.1 % ctrl |
| O=C(CCc1cc(O)c(O)c(O)c1)NCCCCCCCCCC[P+](c1ccccc1)(c1ccccc1)c1ccccc1 [Compound 8] | 7.2 |  |  | 6.10 | 5.24 |  |
| O=C(Cc1cc(O)c(O)c(O)c1)NCCCCCCCCCC[P+](c1ccccc1)(c1ccccc1)c1ccccc1 [Compound 9] |  |  |  | 6.28 | 5.47 | fold enhancement of eeAChE inhibitory activity [2]: 3 fold |
| O=C(/C=C/c1ccc(O)c(O)c1)NCCCCCCCCCC[P+](c1ccccc1)(c1ccccc1)c1ccccc1 [Compound 10] | 23.9 | 6.82 | 5.44 |  |  | fold enhancement of eeAChE inhibitory activity [2]: 2 fold |
| O=C(CCc1ccc(O)c(O)c1)NCCCCCCCCCC[P+](c1ccccc1)(c1ccccc1)c1ccccc1 [Compound 11] | 4.9 | 6.49 | 5.80 |  |  | MTT reduction ([4]; compound 10 µM): 74.97 ± 6.87 % ctrl; cytotoxicity (SH-SY5Y cells): presented cytotoxicity; MTT reduction ([5]; compound 10 µM): 82.87 ± 7.87 % ctrl and 82.9 % ctrl; MTT reduction ([6]; compound 10 µM): 66.43 ± 3.45 % ctrl and 66.4 % ctrl |
| O=C(Cc1ccc(O)c(O)c1)NCCCCCCCCCC[P+](c1ccccc1)(c1ccccc1)c1ccccc1 [Compound 12] | 10.2 |  |  | 6.62 | 5.61 |  |
| N[C@@H](CCC(=O)O)C(=O)O [Glutamate, L-glutamic acid, reference compound] |  |  |  |  |  | MTT reduction, aggressor alone [4]: 72.68 ± 2.81 % ctrl; MTT reduction, aggressor alone ([4]; listed as glutamate): about 72.7 % ctrl |
| O=C([O-])CN(CC(=O)[O-])CC(=O)[O-].[Fe+3] [Iron(III), ferric nitrilotriacetate, reference compound] |  |  |  |  |  | MTT reduction, aggressor alone [5]: 63.06 ± 6.25 % ctrl; MTT reduction, aggressor alone ([5]; listed as iron(III)): ~63.1 % ctrl |
| Aβ-amyloid (1–42) [reference compound] |  |  |  |  |  | MTT reduction, aggressor alone [6]: 58.73 ± 2.76 % ctrl; MTT reduction, aggressor alone ([6]; listed as Aβ42): ~58.7 % ctrl |
